Assay results published in patent US9556179B2 (BRISTOL-MYERS SQUIBB COMPANY, priority 2012, dated 2017).

Key:
CK1ε = CK1ε (Homo sapiens (Human), UniProt P49674); assay: CK1ε kinase assay (Caliper LABCHIP electrophoretic separation of fluoresceinated peptide substrate and product); format: biochemical; conditions: 200 pM enzyme, 50 μM ATP, 22 hours at room temperature
Outline: (§1)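 Each reaction was incubated 22 hours at room temperature and terminated with EDTA. Read-out was microfluidic electrophoretic separation of fluoresceinated substrate and phospho-product.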

CK1δ = CK1δ (Homo sapiens (Human), UniProt P48730); assay: CK1δ kinase assay (Caliper LABCHIP electrophoretic separation of fluoresceinated peptide substrate and product); format: biochemical; conditions: 200 pM enzyme, 50 μM ATP, 22 hours at room temperature
Outline: as §1

pancreatic tumor cell = conditions: in vitro and in vivo; Brockschmidt et al., Gut 2008; cited from earlier work

CK1ε, sequence (P49674 whole entry): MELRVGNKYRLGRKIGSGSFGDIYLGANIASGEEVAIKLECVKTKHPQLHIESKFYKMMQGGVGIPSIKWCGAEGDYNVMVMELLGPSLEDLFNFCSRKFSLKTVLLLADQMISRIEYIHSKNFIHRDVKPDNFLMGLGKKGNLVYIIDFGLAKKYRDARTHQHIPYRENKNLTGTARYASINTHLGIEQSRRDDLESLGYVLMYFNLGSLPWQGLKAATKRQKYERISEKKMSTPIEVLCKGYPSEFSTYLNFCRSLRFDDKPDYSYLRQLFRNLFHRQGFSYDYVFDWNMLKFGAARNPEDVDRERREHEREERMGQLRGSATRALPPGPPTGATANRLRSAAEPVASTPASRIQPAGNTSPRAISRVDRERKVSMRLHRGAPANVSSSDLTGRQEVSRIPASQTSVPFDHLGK
CK1δ, sequence (P48730 whole entry): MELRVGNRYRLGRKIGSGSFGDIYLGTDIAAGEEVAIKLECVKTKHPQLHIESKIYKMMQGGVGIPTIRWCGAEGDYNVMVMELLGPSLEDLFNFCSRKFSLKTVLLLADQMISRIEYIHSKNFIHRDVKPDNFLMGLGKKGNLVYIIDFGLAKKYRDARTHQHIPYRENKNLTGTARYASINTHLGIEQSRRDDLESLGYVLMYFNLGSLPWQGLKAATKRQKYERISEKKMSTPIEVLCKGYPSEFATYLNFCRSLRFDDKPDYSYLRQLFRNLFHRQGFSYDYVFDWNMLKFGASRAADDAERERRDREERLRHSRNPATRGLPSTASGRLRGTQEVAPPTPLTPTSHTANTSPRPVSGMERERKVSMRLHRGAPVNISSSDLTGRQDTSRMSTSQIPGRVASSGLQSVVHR

SMILES	IC50 (CK1ε)	IC50 (CK1δ)	pancreatic tumor cell growth (pancreatic tumor cell)
N#CC1(C(=O)N2CCn3c(nc(-c4ccc(F)cc4)c3-c3ccc4nc(NC(=O)c5ccnc(F)c5)cn4n3)C2)CC1 [Compound 471, N-(6-(7-(1-Cyanocyclopropanecarbonyl)-2-(4-fluorophenyl)-5,6,7,8-tetrahydroimidazo[1,2-a]pyrazin-3-yl)imidazo[1,2-b]pyridazin-2-yl)-2-fluoroisonicotinamide]	3.5 nM	0.5 nM	
O=C(Nc1cn2nc(-c3c(-c4ccc(F)cc4)nc4n3CCN(C(=O)C3(C(F)(F)F)CC3)C4)ccc2n1)c1ccnc(F)c1 [Compound 472, 2-Fluoro-N-(6-(2-(4-fluorophenyl)-7-(1-(trifluoromethyl)cyclopropanecarbonyl)-5,6,7,8-tetrahydroimidazo[1,2-a]pyrazin-3-yl)imidazo[1,2-b]pyridazin-2-yl)isonicotinamide]	4.5 nM	0.6 nM	
CC1(C)CC1C(=O)N1CCn2c(nc(-c3ccc(F)cc3)c2-c2ccc3nc(NC(=O)c4ccnc(F)c4)cn3n2)C1 (stereo not drawn) [Compound 473, N-(6-(7-(2,2-Dimethylcyclopropanecarbonyl)-2-(4-fluorophenyl)-5,6,7,8-tetrahydroimidazo[1,2-a]pyrazin-3-yl)imidazo[1,2-b]pyridazin-2-yl)-2-fluoroisonicotinamide]	2.9 nM	0.5 nM	
COC(=O)N1CCn2c(nc(-c3ccc(F)cc3)c2-c2ccc3nc(NC(=O)c4ccnc(F)c4)cn3n2)C1 [Compound 474, Methyl 3-(2-(2-fluoroisonicotinamido)imidazo[1,2-b]pyridazin-6-yl)-2-(4-fluorophenyl)-5,6-dihydroimidazo[1,2-a]pyrazine-7(8H)-carboxylate]	9.3 nM	1 nM	
CS(=O)(=O)N1CCn2c(nc(-c3ccc(F)cc3)c2-c2ccc3nc(NC(=O)c4ccnc(F)c4)cn3n2)C1 [Compound 476, 2-Fluoro-N-(6-(2-(4-fluorophenyl)-7-(methylsulfonyl)-5,6,7,8-tetrahydroimidazo[1,2-a]pyrazin-3-yl)imidazo[1,2-b]pyridazin-2-yl)isonicotinamide]	2.5 nM	0.3 nM	
O=C(Nc1cn2nc(-c3c(-c4ccc(F)cc4)nc4n3CCN(CCC(F)(F)F)C4)ccc2n1)c1ccnc(F)c1 [Compound 478, 2-Fluoro-N-(6-(2-(4-fluorophenyl)-7-(3,3,3-trifluoropropyl)-5,6,7,8-tetrahydroimidazo[1,2-a]pyrazin-3-yl)imidazo[1,2-b]pyridazin-2-yl)isonicotinamide]	2.3 nM	0.4 nM	
COc1cc(OC)c(C=C2C(O)=Nc3ccccc32)c(OC)c1 [IC261]			reduces pancreatic tumor cell growth in vitro and in vivo

Further lines, with some results ahead:

IC50 (CK1ε)	IC50 (CK1δ)	SMILES	pancreatic tumor cell growth (pancreatic tumor cell)
5.4 nM	0.6 nM	CC(C)(C)NC(=O)N1CCn2c(nc(-c3ccc(F)cc3)c2-c2ccc3nc(NC(=O)c4ccnc(F)c4)cn3n2)C1 [Compound 481, N-(tert-Butyl)-3-(2-(2-fluoroisonicotinamido)imidazo[1,2-b]pyridazin-6-yl)-2-(4-fluorophenyl)-5,6-dihydroimidazo[1,2-a]pyrazine-7(8H)-carboxamide]	
11.9 nM	1.1 nM	CC(C)NC(=O)N1CCn2c(nc(-c3ccc(F)cc3)c2-c2ccc3nc(NC(=O)c4ccnc(F)c4)cn3n2)C1 [Compound 482, 3-(2-(2-Fluoroisonicotinamido)imidazo[1,2-b]pyridazin-6-yl)-2-(4-fluorophenyl)-N-isopropyl-5,6-dihydroimidazo[1,2-a]pyrazine-7(8H)-carboxamide]	
3.9 nM	0.4 nM	O=C(Nc1cn2nc(-c3c(-c4ccc(F)cc4)nc4n3CCN(C(=O)NC3CC3)C4)ccc2n1)c1ccnc(F)c1 [Compound 483, N-Cyclopropyl-3-(2-(2-fluoroisonicotinamido)imidazo[1,2-b]pyridazin-6-yl)-2-(4-fluorophenyl)-5,6-dihydroimidazo[1,2-a]pyrazine-7(8H)-carboxamide]	
6.7 nM	0.6 nM	CC(C)(NC(=O)N1CCn2c(nc(-c3ccc(F)cc3)c2-c2ccc3nc(NC(=O)c4ccnc(F)c4)cn3n2)C1)C(F)(F)F [Compound 484, 3-(2-(2-Fluoroisonicotinamido)imidazo[1,2-b]pyridazin-6-yl)-2-(4-fluorophenyl)-N-(1,1,1-trifluoro-2-methylpropan-2-yl)-5,6-dihydroimidazo[1,2-a]pyrazine-7(8H)-carboxamide]	
4.5 nM	0.5 nM	CC1(NC(=O)N2CCn3c(nc(-c4ccc(F)cc4)c3-c3ccc4nc(NC(=O)c5ccnc(F)c5)cn4n3)C2)CC1 [Compound 485, 3-(2-(2-Fluoroisonicotinamido)imidazo[1,2-b]pyridazin-6-yl)-2-(4-fluorophenyl)-N-(1-methylcyclopropyl)-5,6-dihydroimidazo[1,2-a]pyrazine-7(8H)-carboxamide]	
6.4 nM	0.7 nM	O=C(Nc1cn2nc(-c3c(-c4ccc(F)cc4)nc4n3CCN(C(=O)NCCC(F)(F)F)C4)ccc2n1)c1ccnc(F)c1 [Compound 486, 3-(2-(2-Fluoroisonicotinamido)imidazo[1,2-b]pyridazin-6-yl)-2-(4-fluorophenyl)-N-(3,3,3-trifluoropropyl)-5,6-dihydroimidazo[1,2-a]pyrazine-7(8H)-carboxamide]	
8.1 nM	0.7 nM	CC(C)OC(=O)N1CCn2c(nc(-c3ccc(F)cc3)c2-c2ccc3nc(NC(=O)c4ccnc(F)c4)cn3n2)C1 [Example 475]	
